Results from PMC9371267 (PLoS Biology, 2022).
Substitutions are numbered along the chain they refer to.

Tests used:
Format in all cases: cell-based
[1] = target: T1, GALR2 Y164^4.64×65F mutant (Homo sapiens, UniProt O43603, Y164F); experiment: NanoBiT-based Gq activation assay, Y164^4.64×65F; conditions: HEK293-A; HEK293A; expression ~WT (1:2.5); normalized to WT (1:1); mean ± SEM, n = 3; * p < 0.05 vs expression-matched WT
T1 construct: expressed in transfected cells; host or cells: HEK293A
T1 sequence (O43603 1-387 Y164F): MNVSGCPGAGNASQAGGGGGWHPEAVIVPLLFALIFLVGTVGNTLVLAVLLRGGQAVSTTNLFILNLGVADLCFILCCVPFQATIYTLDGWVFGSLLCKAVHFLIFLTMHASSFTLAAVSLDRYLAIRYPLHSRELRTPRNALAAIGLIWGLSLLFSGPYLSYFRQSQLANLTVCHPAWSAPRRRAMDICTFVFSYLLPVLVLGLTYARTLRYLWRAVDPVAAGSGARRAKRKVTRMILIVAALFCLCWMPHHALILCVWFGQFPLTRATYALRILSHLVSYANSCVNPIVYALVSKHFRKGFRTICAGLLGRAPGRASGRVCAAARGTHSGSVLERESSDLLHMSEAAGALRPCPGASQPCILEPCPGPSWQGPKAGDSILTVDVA
Description: (§1) After an incubation for 1 day, the transfected cells were harvested, pelleted with centrifugation, and suspended in 2 mL of Hank’s balanced saline solution containing 0.01% bovine serum albumin (BSA fatty acid–free grade, SERVA) and 5 mM HEPES (pH 7.4) (assay buffer). The cell suspension was dispensed in a white 96-well plate at a volume of 80 μl per well and mixed with 20 μl of 50 μM coelenterazine (custom-synthesized by Amadis Chemical) diluted in the assay buffer. After 2-h incubation at room temperature, the plate was measured for baseline luminescence (SpectraMax L, Molecular Devices). […] Kinetics data points from 5 min to 10 min were averaged and normalized to the initial count and used as a G-protein activation index. The G-protein activation signals were fitted to a 4-parameter sigmoidal concentration-response curve (GraphPad Prism8), and pEC50 values (negative logarithmic values of EC50 values) and Span values (“Top”–“Bottom”) were obtained. For individual experiments, we calculated Emax by normalizing Span to the WT GALR2 and ΔpEC50 by subtracting pEC50 of the WT GALR2 performed in parallel. We also calculated Emax/EC50 of GALR2 mutants relative to that of GALR2 WT, a dimensionless parameter known as relative intrinsic activity (RAi) and used its log-transformed value (Log RAi) to denote receptor activity.

GALR2 L255^6.54A mutant = target: T2, GALR2 L255^6.54A mutant (Homo sapiens, UniProt O43603, L255A); experiment: NanoBiT-based Gq activation assay, L255^6.54A; conditions: HEK293-A
T2 construct: expressed in transfected cells; host or cells: HEK293A
T2 sequence (O43603 1-387 L255A): T1 sequence (O43603 1-387 Y164F) with F164Y, L255A
Description: as §1

GALR2 L266^ECL3A mutant = target: T3, GALR2 L266^ECL3A mutant (Homo sapiens, UniProt O43603, L266A); experiment: NanoBiT-based Gq activation assay, L266^ECL3A; conditions: HEK293-A; HEK293A; expression ~WT (1:1); normalized to WT (1:1); mean ± SEM, n = 3; ns p > 0.05 vs expression-matched WT
T3 construct: expressed in transfected cells; host or cells: HEK293A
T3 sequence (O43603 1-387 L266A): T1 sequence (O43603 1-387 Y164F) with F164Y, L266A
Description: as §1

GALR2 F264^ECL3A mutant = target: T4, GALR2 F264^ECL3A mutant (Homo sapiens, UniProt O43603, F264A); experiment: NanoBiT-based Gq activation assay, F264^ECL3A; conditions: HEK293-A; HEK293A; expression ~WT (1:1); normalized to WT (1:1); mean ± SEM, n = 3; ns p > 0.05 vs expression-matched WT
T4 construct: expressed in transfected cells; host or cells: HEK293A
T4 sequence (O43603 1-387 F264A): T1 sequence (O43603 1-387 Y164F) with F164Y, F264A
Description: as §1

GALR2 V174^ECL2A mutant = target: T5, GALR2 V174^ECL2A mutant (Homo sapiens, UniProt O43603, V174A); experiment: NanoBiT-based Gq activation assay, V174^ECL2A; conditions: HEK293-A; HEK293A; expression ~WT (1:5); normalized to WT (1:1); mean ± SEM, n = 3; ns p > 0.05 vs expression-matched WT
T5 construct: expressed in transfected cells; host or cells: HEK293A
T5 sequence (O43603 1-387 V174A): T1 sequence (O43603 1-387 Y164F) with F164Y, V174A
Description: as §1

CC(C)C[C@H](NC(=O)CNC(=O)[C@H](CC(N)=O)NC(=O)[C@H](CCCCN)NC(=O)[C@H](CC(=O)O)NC(=O)[C@H](CO)NC(=O)[C@H](Cc1ccccc1)NC(=O)[C@H](CO)NC(=O)[C@H](CCCNC(=N)N)NC(=O)[C@H](Cc1c[nH]cn1)NC(=O)[C@H](CC(N)=O)NC(=O)CNC(=O)[C@@H](NC(=O)[C@H](C)NC(=O)[C@H](Cc1c[nH]cn1)NC(=O)[C@@H]1CCCN1C(=O)CNC(=O)[C@H](CC(C)C)NC(=O)[C@H](CC(C)C)NC(=O)[C@H](Cc1ccc(O)cc1)NC(=O)CNC(=O)[C@H](C)NC(=O)[C@H](CO)NC(=O)[C@H](CC(N)=O)NC(=O)[C@H](CC(C)C)NC(=O)[C@@H](NC(=O)[C@H](Cc1c[nH]c2ccccc12)NC(=O)CN)[C@@H](C)O)C(C)C)C(=O)N[C@H](C(=O)N[C@@H](CO)C(=O)O)[C@@H](C)O [galanin] showed an Emax [1] of 64.9 ± 2.4%, an Emax (GALR2 L255^6.54A mutant) of 64.7 ± 1.6% and an Emax (GALR2 L266^ECL3A mutant) of 90.9 ± 10.5%. The Emax (GALR2 F264^ECL3A mutant) was 90.3 ± 2.3% and the Emax (GALR2 V174^ECL2A mutant) was 72.8 ± 11.3%.
